Key:
[1] = Metabolic stability comparison (FIG. 2); conditions: FIG. 2, Compound 1 versus Compound 0
[2] = In vivo stability of radiotracer in plasma; parameters: species or system CD1 nude mice; conditions: for Mean % intact radiotracer ± SD: CD1 nude mice
Experimental: (§1) For all in vivo studies the following experimental procedure was used. Mice (7- to 8-week old female CD1−/− nude mice) were injected with 5.1-7.4 MBq of compound 1 (n=9) via the lateral tail vein. At 15, 30, 60 (n=3 for each time point) post-radiotracer injection (p.i.) the blood was collected in EDTA-coated tubes through cardiac puncture and the mice were euthanized by cervical dislocation.
From the collected blood, the plasma fraction was obtained by centrifugation at 4,000 g for 7 min, and mixed (200 μL) with an equal volume of cold MeCN to enable sample deproteination. After vigorously vortexing and γ-counting, the samples were centrifuged at 4000 g for 4 min, and the supernatant and the pellet were γ-counted separately to determine the amount of recovered radioactivity in the organic phase. The radioactive contents of the supernatant were analyzed by analytical radio-HPLC. The eluate fractions were collected every 30 s and counted for radioactivity in an automated γ-counter.

[3] = tested on: U87MG xenografts; assay: Ex vivo biodistribution in tumor-bearing animals; parameters: species or system mice; conditions: 60 min p.i.
Experimental: In accordance with the PET results, the biodistribution study confirmed the high and specific tumor uptake of all FAP radioligands at 60 min post-injection (p.i.) (Table 6).

[4] = tested on: U87MG xenografts; conditions: mouse
Experimental: Dynamic whole-body PET images were acquired during 60 min. The average tumor or muscle activity per volume was obtained from the PET images and the decay-corrected time-activity curves (TACs) were extracted. At the end of the scans, the organs and tissues were harvested, weighed and the radioactivity in the samples was measured using an automatic γ-counter.

[5] = target: T1, Human recombinant PREP (Homo sapiens, UniProt P48147); assay: PREP IC50 measurement (N-succinyl-Gly-Pro-AMC); format: biochemical; conditions: FIG. 1, Compound 1 versus Compound 0
T1 construct: made in house; host or cells: E. coli BL21(DE3)
T1 sequence (P48147 1-710): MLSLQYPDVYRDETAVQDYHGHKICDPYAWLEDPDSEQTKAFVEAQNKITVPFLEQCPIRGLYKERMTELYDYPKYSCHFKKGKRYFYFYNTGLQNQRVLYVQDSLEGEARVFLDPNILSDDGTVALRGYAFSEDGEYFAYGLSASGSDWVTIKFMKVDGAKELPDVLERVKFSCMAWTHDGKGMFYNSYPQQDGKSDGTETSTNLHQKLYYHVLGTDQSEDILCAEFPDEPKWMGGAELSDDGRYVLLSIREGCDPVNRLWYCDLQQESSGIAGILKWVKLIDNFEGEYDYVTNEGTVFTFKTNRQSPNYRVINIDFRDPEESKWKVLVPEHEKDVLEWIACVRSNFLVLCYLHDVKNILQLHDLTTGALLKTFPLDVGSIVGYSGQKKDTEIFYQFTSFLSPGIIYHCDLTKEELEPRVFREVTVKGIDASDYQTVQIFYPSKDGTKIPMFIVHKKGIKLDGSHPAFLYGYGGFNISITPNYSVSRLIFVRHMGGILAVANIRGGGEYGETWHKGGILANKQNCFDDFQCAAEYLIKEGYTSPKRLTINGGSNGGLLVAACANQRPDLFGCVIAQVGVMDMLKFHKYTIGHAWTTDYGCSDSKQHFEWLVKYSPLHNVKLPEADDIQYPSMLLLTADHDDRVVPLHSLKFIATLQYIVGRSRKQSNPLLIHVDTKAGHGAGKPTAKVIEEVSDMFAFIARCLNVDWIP
Excerpt: Used Enzymes in these Assays: • A gateway-entry clone for human FAP was purchased from Dharmacon (Accession number DQ891423) and the human secretion signal was replaced with the HoneyBee mellitin secretion signal. For transfection and expression of FAP in Sf9 insect cells the C-terminal BaculoDirect kit from LifeTechnologies was used. The enzyme was purified from the supernatant of the insect cells using immobilized Ni-chelating chromatography (GE healthcare, Diegem, Belgium), followed by anion-exchange chromatography using a 1 mL HiTrap Q and size exclusion chromatography using the Superdex 200 column (GE healthcare, Diegem, Belgium). • Human recombinant PREP was expressed in BL21(DE3) cells and purified using immobilized Co-chelating chromatography (GE healthcare), followed by anion-exchange chromatography on a 1 ml Mono Q column (GE healthcare). • DPP4 was purified from human seminal plasma. • Gateway-entry clones for human DPP8 and DPP9 were purchased from Dharmacon (Accession numbers DQ891733 and DQ892325 respectively). For transfection and expression of DPP8 and DPP9 in Sf9 insect cells the N-terminal BaculoDirect kit from LifeTechnologies was used. The enzymes were purified using immobilized Ni-chelating chromatography (GE healthcare, Diegem, Belgium), followed by anion-exchange chromatography using a 1 mL Mono Q (GE healthcare, Diegem, Belgium). • Recombinant human DPP2 was purchased from R&D.
Eight concentrations of inhibitors/probe were tested. The final DMSO concentration was kept constant during the experiment to exclude any effects. Inhibitors were pre-incubated with the enzyme for 15 minutes at 37° C., afterwards the substrate was added and the velocities of AMC release were measured kinetically at λex=380 nm, λem=465 nm for at least 10 minutes at 37° C. […] Eight concentrations of inhibitors were tested. The final DMSO concentration in kept constant during the experiment to exclude any effects. Inhibitors were pre-incubated with the enzyme for 15 minutes at 37° C., afterwards the substrate was added and the velocities of AMC release were measured kinetically at λex=380 nm, λem=465 nm for at least 10 minutes at 37° C. […] At least eight different inhibitor concentrations were used. The final DMSO concentration is kept constant during the experiment to exclude any effects. Inhibitors were pre-incubated with the enzyme for 15 minutes at 37° C., afterwards the substrate was added and the velocities of pNA release were measured kinetically at 405 nm for at least 10 minutes at 37° C. Measurements were done on the Infinite 200 (Tecan Group Ltd.) and the Magellan software was used to process the data. • For DPP2: Initial velocity measurements were carried out. Lys-Ala-pNA was used as the substrate at a concentration of 1 mM at pH 5.5 (100 mM NaAc, 10 mM EDTA, 14 μg/mL aprotinin). Inhibitors were tested at one concentration, 5 μM, being the final concentration in the well. Inhibitors were pre-incubated with the enzyme for 15 minutes at 37° C., afterwards the substrate was added and the velocities of pNA release were measured kinetically at 405 nm for at least 10 minutes at 37° C. Measurements were done on the Infinite 200 (Tecan Group Ltd.) and the Magellan software was used to process the data.

[6] = Partition coefficient (Log D) of radiotracer; format: physicochemical; conditions: organic solvent / aqueous solution (solvents not named); mean with standard deviation (n=8)
Experimental: Radiotracer characterization: To assess the quality and suitability of compound 1 ([^18F]UAMC-4522) for specific applications, such as medical imaging, several parameters were determined. First, the decay-corrected RCY (Radiochemical Yield) was calculated. This indicates the percentage of the desired radioactively labeled molecule after correction for radioactive decay. It is calculated by dividing the amount of radioactively labeled molecule by the total radioactivity, taking into account the time elapsed since radiolabeling. Next, the Apparent Molar Activity (Am) was calculated. This represents the activity of the radiotracer per unit of substance (e.g. per micromole). It is calculated by dividing the activity of the radiotracer by the amount of labeled molecule used. Next, the Radiochemical Purity (RCP) was determined. This indicates the percentage of the radioactively labeled molecule relative to other chemical components or impurities. It is often determined using analytical techniques such as radio-HPLC (High-Performance Liquid Chromatography) or radio-TLC (Thin-Layer Chromatography). Finally, the Partition Coefficient (Log D) was calculated. This reflects the distribution of a substance between two solvents with different polarities. The Log D value represents the ratio of the concentrations of the substance in an organic solvent and an aqueous solution. […]

[7] = Biodistribution in control animals (FIG. 3); format: in vivo; conditions: FIG. 3, normal CD1 nude mice, 15, 30, 60 min p.i.
Experimental: as §1
The uptake levels of the tracers were expressed as percentage of the injected dose per gram (% ID g^−1).
FIG. 3 summarizes the tissue biodistribution (% injected dose/gram of tissue) of [^18F]UAMC-4522 (compound 1) and of compound 0 in normal CD1 nude mice after 15, 30, and 60 min p.i. (n=3 per timepoint).

[8] = female, CD1-/- nude, in vivo, 60 min

metabolic stability (in words) [1]: significantly higher metabolic stability
Mean % intact radiotracer ± SD ([2]; 15 min p.i.): 74.84 ± 6.62%
Mean % intact radiotracer ± SD ([2]; 30 min p.i.): 60.23 ± 3.60%
Mean % intact radiotracer ± SD ([2]; 60 min p.i.): 56.47 ± 7.81%
Mean % intact radiotracer ± SD ([2]; time 0 min): 99.12 ± 0.51%
in vivo stability (in words) ([2]; compared with the control [68Ga]Ga-DOTA-FAPI-04): significantly higher
Tumor (% ID/g) [3]: 10.98 ± 1.73 % ID/g
Tumor-to-blood [3]: 6.35 ± 1.08
Tumor-to-liver [3]: 4.77 ± 0.58
Tumor-to-muscle [3]: 6.54 ± 1.36
Tumor-to-small intestine [3]: 2.43 ± 0.12
tumor uptake (PET) [4, 8]: 10.16±2.22 % ID/mL
uptake in the muscle (PET) [4, 8]: 2.20±0.33 % ID/mL
uptake into tumor tissue in vivo (in words) [4]: significantly higher uptake
nonspecific tumor uptake (in words) ([4]; in vivo): lower nonspecific tumor uptake
tumor uptake after pre-injection of UAMC-1110 (blocking study, in words) ([4]; in vivo): decrease in tumor uptake
selectivity for FAP with respect to PREP (in words) [5]: significantly higher selectivity for FAP
logD [6]: -1.77 ± 0.01
Compound: [2H]C([2H])([18F])[N+](C)(C)CCCOc1ccc2nccc(C(=O)NCC(=O)N3CC(F)(F)C[C@H]3C#N)c2c1 [Compound 1]
tumor time-activity curve (in words) ([4]; in vivo): early peak uptake in the tumor followed by retention or slight increase in the tumor
biodistribution / excretion profile (in words) [7]: biodistribution profile including urinary excretion

Reference: patent US20250339566A1, “INHIBITORS OF FIBROBLAST ACTIVATION PROTEIN” (UNIVERSITEIT ANTWERPEN, priority 2022, published 2025)
